Measured values taken from US10493027B2, “Chemically stable compositions of a pharmaceutical active agent in a multi- chambered delivery system for mucosal delivery” (MUCODEL PHARMA LLC, priority 2014, dated 2019).
In brackets after ≈: the same amount, converted by molar mass. Counter-ions that a name gives are not always drawn. Like-named read-outs stand apart in the source and are kept apart here.

Experiments:
[1] = cited from earlier work
[2] = Nalbuphine bioavailability study (Example 14)
[3] = cited from earlier work; remark: listed apart in the source
[4] = cited from earlier work; remark: listed apart in the source
[5] = orally delivered, mice; cited from earlier work
[6] = cited from earlier work; remark: listed apart in the source
[7] = cited from earlier work; remark: listed apart in the source

In the case of `Oc1ccc2c3c1O[C@H]1[C@@H](O)CC[C@@]4(O)[C@@H](C2)N(CC2CCC2)CC[C@]314` [Nalbuphine], the t1/2 ([1]; i.v., 20 mg) is listed as 3.7 h, the t1/2 ([1]; p.o., 60 mg) is listed as 4.65 h and the tmax ([1]; p.o., 60 mg) is listed as 0.777 h. The “peak plasma achieved faster than intraoral administration” value ([2]; intranasal) was roughly 1000%, the “maximum drug plasma concentration higher than conventional oral formulation” value ([2]; intranasal, equivalent dose) was roughly 500% and the solubility in water ([3]; Example 14 text) was “about 35 mg/g”.

For `C=CCN1CC[C@]23c4c5ccc(O)c4O[C@H]2C(=O)CC[C@@]3(O)[C@H]1C5` [Naloxone HCl, naloxone hydrochloride], the solubility in water ([3]; US EPA EPI Suite reference) is listed as 73 mg/mL and the solubility in water ([3]; room temperature) is listed as “greater than 70 mg/g”.

In the case of `C=CCN1CC[C@]23c4c5ccc(O)c4O[C@H]2C(=O)CC[C@@]3(O)[C@H]1C5` [Naloxone], the solubility in water ([3]; Example 5) is listed as 1.4 mg/mL (≈ 4.28 mM), the pKa [4] is listed as “around 7.9” and the bioavailability [5] is listed as 1%. The “mean absolute bioavailability of oral Naloxone” value ([6]; healthy subjects, doses 5 mg to 120 mg) was “less than or equal to 2%” and the mean absolute bioavailability ([6]; oral PR tablets, 5 mg dose, based on AUCt) was 0.9%.

For `O=C1CC[C@@]2(O)[C@H]3Cc4ccc(O)c5c4[C@@]2(CCN3CC2CC2)[C@H]1O5` [Naltrexone], the “increase of permeation (factor)” value ([7]; pH of NTX increased from 6.8 to 7.5) is given as 1.6, the “increase of permeation (factor)” value ([7]; pH of NTX increased from 6.8 to 8.5) is given as 4.4 and the permeation enhancement ([7]; with Brij 58, reconstituted human buccal mucosa) is given as 7.7.

In the case of `Oc1ccc2c3c1O[C@H]1[C@@H](O)CC[C@@]4(O)[C@@H](C2)N(CC2CCC2)CC[C@]314` [nalbuphine hydrochloride], the “bioavailability when delivered orally” value ([1]; oral) is listed as “approximately 12%” and the bioavailability ([2]; human, plasma, other: intranasal, 16.8 mg) is listed as greater than 200%.
